Source: patent USRE39591E1, “6-O-substituted ketolides having antibacterial activity” (Abbott Laboratories, priority 1996, dated 2007)
In brackets after ≈: the same amount, converted by molar mass.

Tested on: up to 32 different microorganisms
Assay: in vitro antibacterial activity (MIC), agar dilution on Brain Heart Infusion (BHI) agar with Steers replicator
Type: cell-based
Conditions: unit assumed
Outline: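 Agar dilution MIC: twelve successive compound dilutions in BHI agar, spot-inoculated with 1:100 (1:10 for slow growers) organism dilutions by Steers replicator, incubated 35-37° C for 20-24 h. MIC is lowest concentration showing no growth, slight haze or sparse colonies versus drug-free control; erythromycin A as class reference.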

CCC1OC(=O)C(C)C(=O)C(C)C(OC2OC(C)CC(N(C)C)C2O)C(C)(OCC=Cc2ccc3ccccc3n2)CC(C)C(=O)C(C)C2NC(=O)OC12C (stereo not drawn) [Example 212, R is —CH2CH═CH-(2-quinolyl)]
MIC (organism code AA): 0.39 µg/mL (≈ 0.509 µM)
MIC (organism code BB): 0.39 µg/mL (≈ 0.509 µM)
MIC (organism code CC): > 100 µg/mL
MIC (organism code DD): 0.39 µg/mL (≈ 0.509 µM)
MIC (organism code EE): 0.39 µg/mL (≈ 0.509 µM)
MIC (organism code FF): 0.39 µg/mL (≈ 0.509 µM)
MIC (organism code GG): > 100 µg/mL
MIC (organism code HH): 0.39 µg/mL (≈ 0.509 µM)
MIC (organism code II): 0.1 µg/mL (≈ 0.131 µM)
MIC (organism code JJ): ≤ 0.005 µg/mL
MIC (organism code KK): 0.1 µg/mL (≈ 0.131 µM)
MIC (organism code LL): 0.05 µg/mL (≈ 0.0653 µM)
MIC (organism code MM): 25 µg/mL (≈ 32.6 µM)
MIC (organism code NN): 0.39 µg/mL (≈ 0.509 µM)
MIC (organism code OO): 0.05 µg/mL (≈ 0.0653 µM)
MIC (organism code PP): 0.39 µg/mL (≈ 0.509 µM)
MIC (organism code QQ): > 100 µg/mL
MIC (organism code RR): 0.39 µg/mL (≈ 0.509 µM)
MIC (organism code SS): > 100 µg/mL
MIC (organism code TT): > 100 µg/mL
MIC (organism code UU): 0.78 µg/mL (≈ 1.02 µM)
MIC (organism code VV): 0.2 µg/mL (≈ 0.261 µM)
MIC (organism code WW): 8 µg/mL (≈ 10.4 µM)
MIC (organism code XX): 0.125 µg/mL (≈ 0.163 µM)
MIC (organism code YY): 0.25 µg/mL (≈ 0.326 µM)
MIC (organism code ZZ): 128 µg/mL (≈ 167 µM)
MIC (organism code ZZA): 1 µg/mL (≈ 1.31 µM)

CCC1OC(=O)C(C)C(=O)C(C)C(OC2OC(C)CC(N(C)C)C2O)C(C)(OCC=Cc2cc(Cl)cc(Cl)c2)CC(C)C(=O)C(C)C2NC(=O)OC12C (stereo not drawn) [Example 284, Compound of Formula (IX): L is CO, T is NH2, R is —CH2CH═CH-(3,5-dichlorophenyl)]
MIC (organism code AA): 0.2 µg/mL
MIC (organism code BB): 0.2 µg/mL
MIC (organism code CC): 50 µg/mL
MIC (organism code DD): 0.2 µg/mL
MIC (organism code EE): 0.2 µg/mL
MIC (organism code FF): 0.2 µg/mL
MIC (organism code GG): 50 µg/mL
MIC (organism code HH): 0.2 µg/mL
MIC (organism code II): 0.05 µg/mL
MIC (organism code JJ): 0.02 µg/mL
MIC (organism code KK): 0.02 µg/mL
MIC (organism code LL): ≤ 0.005 µg/mL
MIC (organism code MM): 25 µg/mL
MIC (organism code NN): 0.2 µg/mL
MIC (organism code OO): 0.05 µg/mL
MIC (organism code PP): 0.2 µg/mL
MIC (organism code QQ): > 100 µg/mL
MIC (organism code RR): 1.56 µg/mL
MIC (organism code SS): > 100 µg/mL
MIC (organism code TT): 50 µg/mL
MIC (organism code UU): 0.2 µg/mL
MIC (organism code VV): 0.78 µg/mL
MIC (organism code WW): 4 µg/mL
MIC (organism code XX): 0.03 µg/mL
MIC (organism code YY): 0.03 µg/mL
MIC (organism code ZZ): 32 µg/mL
MIC (organism code ZZA): 0.25 µg/mL

CCC1OC(=O)C(C)C(=O)C(C)C(OC2OC(C)CC(N(C)C)C2O)C(C)(OCC=Cc2ccc3cccnc3c2)CC(C)C(=O)C(C)C2NC(=O)OC12C (stereo not drawn) [Example 278, Compound of Formula (IX): L is CO, T is NH2, R is —CH2CH═CH-(7-quinolyl)]
MIC (organism code AA): 0.05 µg/mL
MIC (organism code BB): 0.05 µg/mL
MIC (organism code CC): > 100 µg/mL
MIC (organism code DD): 0.05 µg/mL
MIC (organism code EE): 0.05 µg/mL
MIC (organism code FF): 0.05 µg/mL
MIC (organism code GG): > 100 µg/mL
MIC (organism code HH): 0.1 µg/mL
MIC (organism code II): 0.05 µg/mL
MIC (organism code JJ): 0.01 µg/mL
MIC (organism code KK): 0.01 µg/mL
MIC (organism code LL): ≤ 0.005 µg/mL
MIC (organism code MM): 1.56 µg/mL
MIC (organism code NN): 0.2 µg/mL
MIC (organism code OO): 0.01 µg/mL
MIC (organism code PP): 0.1 µg/mL
MIC (organism code QQ): 25 µg/mL
MIC (organism code RR): 0.39 µg/mL
MIC (organism code SS): 12.5 µg/mL
MIC (organism code TT): > 100 µg/mL
MIC (organism code UU): 0.78 µg/mL
MIC (organism code VV): 0.02 µg/mL
MIC (organism code WW): 4 µg/mL
MIC (organism code XX): 0.03 µg/mL
MIC (organism code YY): 0.03 µg/mL
MIC (organism code ZZ): 128 µg/mL
MIC (organism code ZZA): 0.5 µg/mL

CCC1OC(=O)C(C)C(=O)C(C)C(OC2OC(C)CC(N(C)C)C2O)C(C)(OCC=Cc2cnc3c([N+](=O)[O-])cccc3c2)CC(C)C(=O)C(C)C2NC(=O)OC12C (stereo not drawn) [Example 211, R is —CH2CH═CH-(8-nitro-3-quinolyl)]
MIC (organism code AA): 0.05 µg/mL (≈ 0.0617 µM)
MIC (organism code BB): 0.05 µg/mL (≈ 0.0617 µM)
MIC (organism code CC): > 100 µg/mL
MIC (organism code DD): 0.1 µg/mL (≈ 0.123 µM)
MIC (organism code EE): 0.1 µg/mL (≈ 0.123 µM)
MIC (organism code FF): 0.1 µg/mL (≈ 0.123 µM)
MIC (organism code GG): > 100 µg/mL
MIC (organism code HH): 0.05 µg/mL (≈ 0.0617 µM)
MIC (organism code II): 0.01 µg/mL (≈ 0.0123 µM)
MIC (organism code JJ): 0.01 µg/mL (≈ 0.0123 µM)
MIC (organism code KK): 0.01 µg/mL (≈ 0.0123 µM)
MIC (organism code LL): 0.01 µg/mL (≈ 0.0123 µM)
MIC (organism code MM): 3.1 µg/mL (≈ 3.82 µM)
MIC (organism code NN): 0.1 µg/mL (≈ 0.123 µM)
MIC (organism code OO): 0.01 µg/mL (≈ 0.0123 µM)
MIC (organism code PP): 0.1 µg/mL (≈ 0.123 µM)
MIC (organism code QQ): 25 µg/mL (≈ 30.8 µM)
MIC (organism code RR): 0.2 µg/mL (≈ 0.247 µM)
MIC (organism code SS): 50 µg/mL (≈ 61.7 µM)
MIC (organism code TT): > 100 µg/mL
MIC (organism code UU): 0.39 µg/mL (≈ 0.481 µM)
MIC (organism code VV): 0.05 µg/mL (≈ 0.0617 µM)
MIC (organism code WW): 2 µg/mL (≈ 2.47 µM)
MIC (organism code XX): ≤ 0.004 µg/mL
MIC (organism code YY): ≤ 0.004 µg/mL
MIC (organism code ZZ): 16 µg/mL (≈ 19.7 µM)
MIC (organism code ZZA): 0.25 µg/mL (≈ 0.308 µM)

CC[C@H]1OC(=O)[C@H](C)C(=O)[C@H](C)[C@@H](O[C@@H]2O[C@H](C)C[C@H](N(C)C)[C@H]2O)[C@@](C)(OCC(=O)c2ccccc2)C[C@@H](C)C(=O)[C@H](C)[C@H]2NC(=O)O[C@@]21C [Example 239, Compound of Formula (IX): L is CO, T is NH, R is —CH2C(O)-phenyl]
MIC (organism code AA): 6.2 µg/mL
MIC (organism code BB): 6.2 µg/mL
MIC (organism code CC): > 100 µg/mL
MIC (organism code DD): 6.2 µg/mL
MIC (organism code EE): 6.2 µg/mL
MIC (organism code FF): 6.2 µg/mL
MIC (organism code GG): > 100 µg/mL
MIC (organism code HH): 6.2 µg/mL
MIC (organism code II): 1.56 µg/mL
MIC (organism code JJ): 0.39 µg/mL
MIC (organism code KK): 0.39 µg/mL
MIC (organism code LL): 0.39 µg/mL
MIC (organism code MM): > 100 µg/mL
MIC (organism code NN): 1.56 µg/mL
MIC (organism code OO): 0.39 µg/mL
MIC (organism code PP): 1.56 µg/mL
MIC (organism code QQ): > 100 µg/mL
MIC (organism code RR): 6.1 µg/mL
MIC (organism code SS): > 100 µg/mL
MIC (organism code TT): > 100 µg/mL
MIC (organism code UU): 50 µg/mL
MIC (organism code VV): 3.1 µg/mL
MIC (organism code WW): 64 µg/mL
MIC (organism code XX): 0.25 µg/mL
MIC (organism code YY): 0.25 µg/mL
MIC (organism code ZZ): > 128 µg/mL
MIC (organism code ZZA): 1 µg/mL
